According to the NIST ThermoML archive (doi:10.1016/j.jct.2011.02.008):

Assay: xn = mol fraction of the nth substance listed
Details: Liquid, Vibrating tube method

COC(=O)c1ccccc1 [methyl benzoate] + C1CCCCC1
mass density [kg/m3]
Details | x1 = 0.0985 | x1 = 0.1963 | x1 = 0.2939 | x1 = 0.3942 | x1 = 0.4955 | x1 = 0.596 | x1 = 0.6975 | x1 = 0.7993 | x1 = 0.8982
298.15 K, 10000 kPa | – | – | – | – | – | – | – | 1031.4 | 1060
298.15 K, 15000 kPa | 817.1 | 848.6 | 880.1 | 911.7 | 943.2 | 974.8 | 1005.4 | 1034.6 | 1063.1
298.15 K, 20000 kPa | 820.8 | 852.2 | 883.7 | 915.2 | 946.6 | 978.2 | 1008.5 | 1037.7 | 1066.1
298.15 K, 25000 kPa | 824.4 | 855.8 | 887.2 | 918.6 | 949.9 | 981.4 | 1011.7 | 1040.7 | 1069
298.15 K, 30000 kPa | 827.9 | 859.2 | 890.5 | 921.9 | 953.1 | 984.5 | 1014.7 | 1043.6 | 1071.9
298.15 K, 35000 kPa | 831.2 | 862.5 | 893.8 | 925 | 956.2 | 987.5 | 1017.7 | 1046.5 | 1074.7
298.15 K, 40000 kPa | 834.4 | 865.7 | 896.9 | 928.1 | 959.2 | 990.5 | 1020.5 | 1049.3 | 1077.4
298.15 K, 45000 kPa | 837.5 | 868.8 | 900 | 931.1 | 962.1 | 993.4 | 1023.3 | 1052.1 | 1080.1
298.15 K, 50000 kPa | 840.5 | 871.8 | 902.9 | 934 | 965 | 996.2 | 1026.1 | 1054.7 | 1082.7
298.15 K, 55000 kPa | 843.4 | 874.7 | 905.8 | 936.9 | 967.8 | 999 | 1028.8 | 1057.4 | 1085.3
298.15 K, 60000 kPa | 846.1 | 877.3 | 908.6 | 939.5 | 970.3 | 1001.4 | 1031.3 | 1059.9 | 1087.8
308.15 K, 100 kPa | 795.4 | 827 | 858.8 | 890.8 | 922.6 | 954.7 | 985.6 | 1015.2 | 1044.1
308.15 K, 1000 kPa | 796.2 | 827.8 | 859.6 | 891.5 | 923.4 | 955.4 | 986.3 | 1015.9 | 1044.7
308.15 K, 5000 kPa | 799.8 | 831.2 | 863.1 | 894.9 | 926.6 | 958.5 | 989.3 | 1018.7 | 1047.5
308.15 K, 10000 kPa | 804.3 | 835.7 | 867.2 | 898.9 | 930.5 | 962.3 | 992.9 | 1022.2 | 1050.8
308.15 K, 15000 kPa | 808.3 | 839.8 | 871.2 | 902.8 | 934.2 | 965.9 | 996.4 | 1025.6 | 1054.1
308.15 K, 20000 kPa | 812.3 | 843.6 | 875 | 906.5 | 937.8 | 969.4 | 999.8 | 1028.8 | 1057.2
308.15 K, 25000 kPa | 816.1 | 847.3 | 878.7 | 910 | 941.3 | 972.8 | 1003 | 1032 | 1060.3
308.15 K, 30000 kPa | 819.7 | 850.9 | 882.2 | 913.5 | 944.6 | 976 | 1006.2 | 1035 | 1063.3
308.15 K, 35000 kPa | 823.2 | 854.4 | 885.6 | 916.8 | 947.9 | 979.2 | 1009.3 | 1038 | 1066.2
308.15 K, 40000 kPa | 826.5 | 857.7 | 888.9 | 920 | 951 | 982.3 | 1012.3 | 1041 | 1069
308.15 K, 45000 kPa | 829.8 | 861 | 892.1 | 923.2 | 954.1 | 985.3 | 1015.2 | 1043.8 | 1071.8
308.15 K, 50000 kPa | 833 | 864.1 | 895.1 | 926.2 | 957.1 | 988.2 | 1018.1 | 1046.6 | 1074.6
308.15 K, 55000 kPa | 836 | 867.1 | 898.2 | 929.2 | 960 | 991.1 | 1020.9 | 1049.3 | 1077.2
308.15 K, 60000 kPa | 838.8 | 869.5 | 900.9 | 931.9 | 962.7 | 993.7 | 1023.4 | 1051.9 | 1079.9
318.15 K, 100 kPa | 785.8 | 817.4 | 849.2 | 881.3 | 913.1 | 945.2 | 976.1 | 1005.8 | 1034.6
318.15 K, 1000 kPa | 786.8 | 818.3 | 850.1 | 882.1 | 913.9 | 945.9 | 976.8 | 1006.5 | 1035.2
318.15 K, 5000 kPa | 790.7 | 822 | 853.8 | 885.7 | 917.3 | 949.3 | 980 | 1009.5 | 1038.2
318.15 K, 10000 kPa | 795.2 | 826.6 | 858.2 | 889.9 | 921.4 | 953.2 | 983.8 | 1013.1 | 1041.7
318.15 K, 15000 kPa | 799.7 | 830.9 | 862.4 | 893.9 | 925.4 | 957 | 987.5 | 1016.7 | 1045.1
318.15 K, 20000 kPa | 803.8 | 835.1 | 866.4 | 897.8 | 929.1 | 960.7 | 991 | 1020.1 | 1048.4
318.15 K, 25000 kPa | 807.8 | 839 | 870.2 | 901.5 | 932.7 | 964.2 | 994.4 | 1023.3 | 1051.6
318.15 K, 30000 kPa | 811.6 | 842.8 | – | – | – | – | – | – | –
